In general, IC50 refers to the concentration needed to halve the response being measured.

SMILES strings stand for the structures.

These results are taken from patent US20240299385A1 (ReWind Therapeutics NV, priority 2021, published 2024).

T1 sequence (Q13304 whole entry): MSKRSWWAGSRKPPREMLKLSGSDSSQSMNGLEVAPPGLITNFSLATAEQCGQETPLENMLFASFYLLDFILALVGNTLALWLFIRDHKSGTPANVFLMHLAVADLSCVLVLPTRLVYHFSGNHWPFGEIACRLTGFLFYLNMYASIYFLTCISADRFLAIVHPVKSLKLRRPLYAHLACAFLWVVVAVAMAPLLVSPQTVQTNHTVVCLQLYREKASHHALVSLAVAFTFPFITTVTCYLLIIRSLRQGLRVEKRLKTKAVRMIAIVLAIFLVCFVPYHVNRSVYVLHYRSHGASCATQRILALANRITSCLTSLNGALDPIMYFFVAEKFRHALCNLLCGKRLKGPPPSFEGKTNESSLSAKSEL

This test concerns the target T1, human GPR17 receptor (Homo sapiens, UniProt Q13304).
T1 construct: host or cells: HEK-293
As to the kind of experiment: Calcium mobilization functional assay (Fluo-8, FLIPR TETRA) in HEK-293 hGPR17 (Gα-q assay). It counts as cell-based. Particulars: antagonism of MDL29,951 (~EC80) induced Ca2+ signal; cell line (HEK-293 hGPR17 or HEK-293 Suchi5 hGPR17) not given. Put shortly:
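Fluo-8-loaded HEK-293 hGPR17 cells (60 min dye loading, room temperature) were preincubated with compound for twenty minutes, then challenged with agonist MDL29,951 at ~EC80, 500 nM. Intracellular calcium release via Gα-q was recorded as FLIPR fluorescence for a further 2 minutes; compounds tested in duplicate.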
On the technique in general: Calcium flux is commonly read through the fluorescence of an indicator in the cells.
As for `Cc1cccc(C)c1-c1cc(S(=O)(=O)Nc2ccc(C#N)cc2F)c[nH]1` [Cpd 085, N-(4-cyano-2-fluoro-phenyl)-5-(2,6-dimethylphenyl)-1H-pyrrole-3-sulfonamide], the half-maximal inhibitory concentration (IC50) was in the range of 0.5 to 5 µM.
For `COc1ccc(-c2cc(S(=O)(=O)Nc3ccc(C#N)cc3F)c[nH]2)c(F)c1` [Cpd 086, N-(4-cyano-2-fluoro-phenyl)-5-(2-fluoro-4-methoxy-phenyl)-1H-pyrrole-3-sulfonamide] the value was 0.5 to 5 µM; for `COc1cccc(-c2cc(S(=O)(=O)Nc3ccc(C#N)cc3F)c[nH]2)c1F` [Cpd 087, N-(4-cyano-2-fluoro-phenyl)-5-(2-fluoro-3-methoxy-phenyl)-1H-pyrrole-3-sulfonamide], 0.5 to 5 µM.
With `N#Cc1ccc(NS(=O)(=O)c2c[nH]c(-c3cc(F)c(F)cc3F)c2)c(F)c1` [Cpd 088, N-(4-cyano-2-fluoro-phenyl)-5-(2,4,5-trifluorophenyl)-1H-pyrrole-3-sulfonamide], the concentration for half-maximal inhibition (IC50) is under 0.5 µM.
For `COc1nccc(F)c1-c1cc(S(=O)(=O)Nc2ccc(C#N)cc2F)c[nH]1` [Cpd 089, N-(4-cyano-2-fluoro-phenyl)-5-(4-fluoro-2-methoxy-3-pyridyl)-1H-pyrrole-3-sulfonamide] the value was under 0.5 µM; for `N#Cc1ccc(NS(=O)(=O)c2c[nH]c(-c3ncccc3F)c2)c(F)c1` [Cpd 090, N-(4-cyano-2-fluorophenyl)-5-(3-fluoropyridin-2-yl)-1H-pyrrole-3-sulfonamide], under 0.5 µM; for `N#Cc1ccc(NS(=O)(=O)c2c[nH]c(-c3c(F)cccc3F)c2)c(F)c1` [Cpd 091, N-(4-cyano-2-fluoro-phenyl)-5-(2,6-difluorophenyl)-1H-pyrrole-3-sulfonamide], under 0.5 µM.
On to `N#Cc1ccc(NS(=O)(=O)c2c[nH]c(-c3ccccc3C(F)F)c2)c(F)c1` [Cpd 093, N-(4-cyano-2-fluoro-phenyl)-5-[2-(difluoromethyl)phenyl]-1H-pyrrole-3-sulfonamide], for which the IC50 fell in the range of 0.5 to 5 µM.
The result for `N#Cc1ccc(NS(=O)(=O)c2c[nH]c(-c3ncccn3)c2)c(F)c1` [Cpd 094, N-(4-cyano-2-fluorophenyl)-5-(pyrimidin-2-yl)-1H-pyrrole-3-sulfonamide] reads 5 to 50 µM; that for `COc1cccc(OC)c1-c1cc(S(=O)(=O)Nc2ccc(C#N)cc2F)c[nH]1` [Cpd 095, N-(4-cyano-2-fluoro-phenyl)-5-(2,6-dimethoxyphenyl)-1H-pyrrole-3-sulfonamide], 0.5 to 5 µM; that for `N#Cc1ccc(NS(=O)(=O)c2c[nH]c(-c3ccc(C#N)cc3F)c2)c(F)c1` [Cpd 096, N,5-bis(4-cyano-2-fluoro-phenyl)-1H-pyrrole-3-sulfonamide], 0.5 to 5 µM.
The result for `N#Cc1ccc(NS(=O)(=O)c2c[nH]c(-c3cc(F)cc(F)c3F)c2)c(F)c1` [Cpd 097, N-(4-cyano-2-fluoro-phenyl)-5-(2,3,5-trifluorophenyl)-1H-pyrrole-3-sulfonamide] reads 0.5 to 5 µM.
For `N#Cc1ccc(NS(=O)(=O)c2c[nH]c(C3CCC3)c2)c(F)c1` [Cpd 098, N-(4-cyano-2-fluorophenyl)-5-cyclobutyl-1H-pyrrole-3-sulfonamide] the value was 0.5 to 5 µM.
On to `O=S(=O)(Nc1ccc(C(F)(F)F)nc1)c1c[nH]c(-c2ccccc2)c1` [Cpd 099, 5-phenyl-N-[6-(trifluoromethyl)-3-pyridyl]-1H-pyrrole-3-sulfonamide], for which the IC50 lay within 0.5 to 5 µM.
For `Cc1ncccc1NS(=O)(=O)c1c[nH]c(-c2ccccc2)c1` [Cpd 100, N-(2-methyl-3-pyridyl)-5-phenyl-1H-pyrrole-3-sulfonamide] the value was 0.5 to 5 µM; for `Cc1ccc(NS(=O)(=O)c2c[nH]c(-c3ccccc3)c2)c(C)n1` [Cpd 101, N-(2,6-dimethyl-3-pyridyl)-5-phenyl-1H-pyrrole-3-sulfonamide], 0.5 to 5 µM; for `N#Cc1ccc(NS(=O)(=O)c2c[nH]c(-c3cccs3)c2)c(F)c1` [Cpd 102, N-(4-cyano-2-fluoro-phenyl)-5-(2-thienyl)-1H-pyrrole-3-sulfonamide], under 0.5 µM.
The result for `N#Cc1ccc(NS(=O)(=O)c2c[nH]c(-c3ccsc3)c2)c(F)c1` [Cpd 103, N-(4-cyano-2-fluoro-phenyl)-5-(3-thienyl)-1H-pyrrole-3-sulfonamide] reads under 0.5 µM.
As to `N#Cc1ccc(NS(=O)(=O)c2c[nH]c(-c3cc(F)cc(F)c3)c2)c(F)c1` [Cpd 104, N-(4-cyano-2-fluoro-phenyl)-5-(3,5-difluorophenyl)-1H-pyrrole-3-sulfonamide], the IC50 lay in the range of 0.5 to 5 µM.
For `N#Cc1ccc(NS(=O)(=O)c2c[nH]c(-c3cccnc3F)c2)c(F)c1` [Cpd 105, N-(4-cyano-2-fluoro-phenyl)-5-(2-fluoro-3-pyridyl)-1H-pyrrole-3-sulfonamide] the value was 0.5 to 5 µM.
For the molecule `N#Cc1ccc(NS(=O)(=O)c2c[nH]c(-c3ccccc3C#N)c2)c(F)c1` [Cpd 106, N-(4-cyano-2-fluoro-phenyl)-5-(2-cyanophenyl)-1H-pyrrole-3-sulfonamide], the 50% inhibitory concentration (IC50) fell in the range of 0.5 to 5 µM.
The result for `N#Cc1ccc(NS(=O)(=O)c2c[nH]c(-c3cccc(CO)c3F)c2)c(F)c1` [Cpd 107, N-(4-cyano-2-fluoro-phenyl)-5-[2-fluoro-3-(hydroxymethyl)phenyl]-1H-pyrrole-3-sulfonamide] reads 0.5 to 5 µM.
For `N#Cc1ccc(NS(=O)(=O)c2c[nH]c(-c3cc(CO)ccc3F)c2)c(F)c1` [Cpd 108, N-(4-cyano-2-fluoro-phenyl)-5-[2-fluoro-5-(hydroxymethyl)phenyl]-1H-pyrrole-3-sulfonamide] the value was 0.5 to 5 µM; for `O=S(=O)(Nc1cc(F)c(F)cc1F)c1c[nH]c(-c2ccc(F)cc2)c1` [Cpd 109, 5-(4-fluorophenyl)-N-(2,4,5-trifluorophenyl)-1H-pyrrole-3-sulfonamide], 5 to 50 µM; for `O=S(=O)(Nc1cc(F)c(F)cc1F)c1c[nH]c(-c2cccc(F)c2)c1` [Cpd 110, 5-(3-fluorophenyl)-N-(2,4,5-trifluorophenyl)-1H-pyrrole-3-sulfonamide], 0.5 to 5 µM.
The result for `Cc1ccccc1-c1cc(S(=O)(=O)Nc2cc(F)c(F)cc2F)c[nH]1` [Cpd 111, 5-(o-tolyl)-N-(2,4,5-trifluorophenyl)-1H-pyrrole-3-sulfonamide] reads 0.5 to 5 µM; that for `O=S(=O)(Nc1ccc2ncccc2c1)c1c[nH]c(-c2ccccc2)c1` [Cpd 112, 5-phenyl-N-(6-quinolyl)-1H-pyrrole-3-sulfonamide], 0.5 to 5 µM; that for `O=S(=O)(Nc1cc(F)c(C(F)(F)F)cc1F)c1c[nH]c(-c2ccc(F)cc2)c1` [Cpd 113, N-[2,5-difluoro-4-(trifluoromethyl)phenyl]-5-(4-fluorophenyl)-1H-pyrrole-3-sulfonamide], 0.5 to 5 µM.
As to `O=S(=O)(Nc1cc(F)c(C(F)(F)F)cc1F)c1c[nH]c(-c2cccc(F)c2)c1` [Cpd 114, N-[2,5-difluoro-4-(trifluoromethyl)phenyl]-5-(3-fluorophenyl)-1H-pyrrole-3-sulfonamide], the IC50 fell in the range of 0.5 to 5 µM.
For `O=S(=O)(Nc1ccc(OCCF)cc1F)c1c[nH]c(-c2ccccc2F)c1` [Cpd 115, N-[2-fluoro-4-(2-fluoroethoxy)phenyl]-5-(2-fluorophenyl)-1H-pyrrole-3-sulfonamide] the value was 5 to 50 µM; for `COc1nc(OC(F)F)c(F)cc1NS(=O)(=O)c1c[nH]c(-c2ccccc2F)c1` [Cpd 116, N-[6-(difluoromethoxy)-5-fluoro-2-methoxy-3-pyridyl]-5-(2-fluorophenyl)-1H-pyrrole-3-sulfonamide], under 0.5 µM.
For `COc1ccc(F)c(-c2cc(S(=O)(=O)Nc3cc(F)c(C(F)(F)F)cc3F)c[nH]2)c1` [Cpd 117, N-[2,5-difluoro-4-(trifluoromethyl)phenyl]-5-(2-fluoro-5-methoxy-phenyl)-1H-pyrrole-3-sulfonamide], the IC50 was 0.5 to 5 µM.
The result for `Cc1ccccc1-c1cc(S(=O)(=O)Nc2cc(F)c(C(F)(F)F)cc2F)c[nH]1` [Cpd 118, N-[2,5-difluoro-4-(trifluoromethyl)phenyl]-5-(o-tolyl)-1H-pyrrole-3-sulfonamide] reads 0.5 to 5 µM; that for `O=S(=O)(Nc1cc(F)c(C(F)(F)F)cc1F)c1c[nH]c(-c2c(F)cccc2F)c1` [Cpd 119, 5-(2,6-difluorophenyl)-N-[2,5-difluoro-4-(trifluoromethyl)phenyl]-1H-pyrrole-3-sulfonamide], under 0.5 µM.
The result for `O=S(=O)(Nc1ccc(F)cc1F)c1c[nH]c(-c2cccc(F)c2)c1` [Cpd 120, N-(2,4-difluorophenyl)-5-(3-fluorophenyl)-1H-pyrrole-3-sulfonamide] reads 5 to 50 µM; that for `O=S(=O)(Nc1ccc(F)cc1F)c1c[nH]c(-c2ccccn2)c1` [Cpd 122, N-(2,4-difluorophenyl)-5-(2-pyridyl)-1H-pyrrole-3-sulfonamide], 5 to 50 µM.
The result for `O=S(=O)(Nc1ccc(C(F)(F)F)cc1F)c1c[nH]c(-c2ccccn2)c1` [Cpd 123, N-[2-fluoro-4-(trifluoromethyl)phenyl]-5-(2-pyridyl)-1H-pyrrole-3-sulfonamide] reads 0.5 to 5 µM; that for `O=S(=O)(Nc1cc(F)c(C(F)(F)F)cc1F)c1c[nH]c(-c2ccccn2)c1` [Cpd 124, N-[2,5-difluoro-4-(trifluoromethyl)phenyl]-5-(2-pyridyl)-1H-pyrrole-3-sulfonamide], under 0.5 µM; that for `O=S(=O)(Nc1cccc(F)c1)c1c[nH]c(-c2ccccn2)c1` [Cpd 125, N-(3-fluorophenyl)-5-(2-pyridyl)-1H-pyrrole-3-sulfonamide], 5 to 50 µM.
As to `Cc1nc(Cl)ccc1NS(=O)(=O)c1c[nH]c(-c2ccccc2)c1` [Cpd 126, N-(6-chloro-2-methyl-3-pyridyl)-5-phenyl-1H-pyrrole-3-sulfonamide], the IC50 lay in the range of 0.5 to 5 µM.
The result for `Cc1ccc(NS(=O)(=O)c2c[nH]c(-c3ccccc3)c2)c(Cl)n1` [Cpd 127, N-(2-chloro-6-methyl-3-pyridyl)-5-phenyl-1H-pyrrole-3-sulfonamide] reads 5 to 50 µM.
